The structures appear in SMILES notation.

In this test the target is Epidermal growth factor receptor (Homo sapiens) (UniProt P00533). Briefly: change in phospho-EGFR protein amount, up or down, late-stage follow-up, counter-screen for KLF5 inhibitor project, HT29 cells, chemiluminescent western blot, powder samples (AID 588653). Particulars: p-EGFR western blot, 24 h, at 10 µM. In general terms: The purpose of a counterscreen is to sort out artefacts and off-target activity.
Chain of Epidermal growth factor receptor (Homo sapiens) (P00533 whole entry, looked up): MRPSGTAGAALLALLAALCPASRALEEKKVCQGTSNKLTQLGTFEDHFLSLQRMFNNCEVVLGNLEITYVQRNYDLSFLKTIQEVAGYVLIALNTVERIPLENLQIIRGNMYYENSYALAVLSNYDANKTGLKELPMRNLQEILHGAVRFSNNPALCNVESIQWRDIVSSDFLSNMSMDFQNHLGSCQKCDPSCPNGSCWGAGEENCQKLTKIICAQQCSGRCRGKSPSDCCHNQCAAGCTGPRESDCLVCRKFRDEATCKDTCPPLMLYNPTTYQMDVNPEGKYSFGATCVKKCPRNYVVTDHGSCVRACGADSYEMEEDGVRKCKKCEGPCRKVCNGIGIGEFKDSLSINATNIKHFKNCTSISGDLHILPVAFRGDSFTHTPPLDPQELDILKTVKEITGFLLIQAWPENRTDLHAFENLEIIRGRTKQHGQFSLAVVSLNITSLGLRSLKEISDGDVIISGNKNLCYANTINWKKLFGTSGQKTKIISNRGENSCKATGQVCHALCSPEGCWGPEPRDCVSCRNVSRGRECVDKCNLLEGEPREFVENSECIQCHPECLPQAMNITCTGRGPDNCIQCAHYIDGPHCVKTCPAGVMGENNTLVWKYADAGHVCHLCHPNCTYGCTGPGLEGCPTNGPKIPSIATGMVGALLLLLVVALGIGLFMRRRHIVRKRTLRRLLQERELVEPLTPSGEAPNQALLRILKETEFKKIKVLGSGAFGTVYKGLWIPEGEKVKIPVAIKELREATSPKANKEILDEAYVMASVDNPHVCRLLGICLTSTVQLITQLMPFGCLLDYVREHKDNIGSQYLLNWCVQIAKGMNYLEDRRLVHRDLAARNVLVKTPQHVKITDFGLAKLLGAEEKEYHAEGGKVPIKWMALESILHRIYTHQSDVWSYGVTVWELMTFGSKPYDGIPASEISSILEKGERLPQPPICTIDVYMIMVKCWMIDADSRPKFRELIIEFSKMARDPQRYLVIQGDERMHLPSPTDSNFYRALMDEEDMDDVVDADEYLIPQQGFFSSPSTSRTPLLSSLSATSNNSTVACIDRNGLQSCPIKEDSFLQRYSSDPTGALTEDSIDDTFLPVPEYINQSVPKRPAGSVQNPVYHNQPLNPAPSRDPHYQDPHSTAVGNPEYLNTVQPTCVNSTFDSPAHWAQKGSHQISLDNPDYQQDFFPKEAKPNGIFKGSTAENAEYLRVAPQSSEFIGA
With `CN(C(=O)CNC(=O)/C=C/c1cccc(Cl)c1)C1CCS(=O)(=O)C1` (stereo not drawn), the inhibition is -130%.
With `CN(C(=O)CNC(=O)/C=C/c1cccc(Cl)c1)C1CCS(=O)(=O)CC1` the figure was -116%; with `CN(C(=O)COC(=O)/C=C/c1cccc([N+](=O)[O-])c1)C1CCS(=O)(=O)C1` (stereo not drawn), -47.5%.

In general, inhibition refers to the change of the read-out against control, counted positive when it falls.

The values are drawn from PubChem BioAssay AID588653 (The Scripps Research Institute Molecular Screening Center, 2011).
